Experiment: xn = mol fraction of the nth substance listed
Settings: 101 kPa, Liquid; for viscosity: Falling or rolling sphere viscometry; for mass density: Vibrating tube method

CCCC[n+]1ccc(C)cc1.O=S(=O)([N-]S(=O)(=O)C(F)(F)F)C(F)(F)F + CCCC[n+]1ccccc1.F[B-](F)(F)F
Settings | mass density [kg/m3] | viscosity [mPa·s]
293.15 K, x2 = 0 | 1416.6 | 70.6
293.15 K, x2 = 0.0575 | 1409.3 | 75.3
293.15 K, x2 = 0.1136 | 1401.9 | 77.8
293.15 K, x2 = 0.2311 | 1385.1 | 88.7
293.15 K, x2 = 0.3515 | 1366 | 101.1
293.15 K, x2 = 0.4566 | 1347.8 | 115.1
293.15 K, x2 = 0.5692 | 1326.2 | 135.2
293.15 K, x2 = 0.673 | 1304 | 153.4
293.15 K, x2 = 0.7836 | 1277.5 | 171.9
293.15 K, x2 = 0.889 | 1249.1 | 195
293.15 K, x2 = 0.9535 | 1230.2 | 216.1
303.15 K, x2 = 0 | 1407.3 | 45.2
303.15 K, x2 = 0.0575 | 1400.1 | 47.3
303.15 K, x2 = 0.1136 | 1392.8 | 49.3
303.15 K, x2 = 0.2311 | 1376.2 | 55.5
303.15 K, x2 = 0.3515 | 1357.4 | 63.3
303.15 K, x2 = 0.4566 | 1339.4 | 72.7
303.15 K, x2 = 0.5692 | 1318.1 | 81.7
303.15 K, x2 = 0.673 | 1296.1 | 90.6
303.15 K, x2 = 0.7836 | 1270 | 98.9
303.15 K, x2 = 0.889 | 1241.9 | 109.6
303.15 K, x2 = 0.9535 | 1223.2 | 118.8
313.15 K, x2 = 0 | 1398.1 | 30.6
313.15 K, x2 = 0.0575 | 1391 | 31.9
313.15 K, x2 = 0.1136 | 1383.8 | 33
313.15 K, x2 = 0.2311 | 1367.4 | 37
313.15 K, x2 = 0.3515 | 1348.8 | 42.3
313.15 K, x2 = 0.4566 | 1331.1 | 47.2
313.15 K, x2 = 0.5692 | 1310 | 52.1
313.15 K, x2 = 0.673 | 1288.3 | 56.6
313.15 K, x2 = 0.7836 | 1262.5 | 61.3
313.15 K, x2 = 0.889 | 1234.7 | 66.9
313.15 K, x2 = 0.9535 | 1216.2 | 72.5
323.15 K, x2 = 0 | 1388.8 | 21.8
323.15 K, x2 = 0.0575 | 1381.9 | 22.6
323.15 K, x2 = 0.1136 | 1374.7 | 23.5
323.15 K, x2 = 0.2311 | 1358.6 | 26.4
323.15 K, x2 = 0.3515 | 1340.3 | 29.6
323.15 K, x2 = 0.4566 | 1322.8 | 32.4
323.15 K, x2 = 0.5692 | 1302 | 35.4
323.15 K, x2 = 0.673 | 1280.5 | 38.2
323.15 K, x2 = 0.7836 | 1255 | 41
323.15 K, x2 = 0.889 | 1227.6 | 44.1
323.15 K, x2 = 0.9535 | 1209.3 | 46.5
333.15 K, x2 = 0 | 1379.7 | 16.1
333.15 K, x2 = 0.0575 | 1372.8 | 16.8
333.15 K, x2 = 0.1136 | 1365.8 | 17.5
333.15 K, x2 = 0.2311 | 1349.8 | 19.5
333.15 K, x2 = 0.3515 | 1331.8 | 21.6
333.15 K, x2 = 0.4566 | 1314.5 | 23.3
333.15 K, x2 = 0.5692 | 1294 | 25.2
333.15 K, x2 = 0.673 | 1272.8 | 27
333.15 K, x2 = 0.7836 | 1247.6 | 28.9
333.15 K, x2 = 0.889 | 1220.5 | 30.8
333.15 K, x2 = 0.9535 | 1202.4 | 32.2
343.15 K, x2 = 0 | 1370.5 | 12.3
343.15 K, x2 = 0.0575 | 1363.8 | 12.8
343.15 K, x2 = 0.1136 | 1356.9 | 13.3
343.15 K, x2 = 0.2311 | 1341.1 | 14.6
343.15 K, x2 = 0.3515 | 1323.3 | 16
343.15 K, x2 = 0.4566 | 1306.3 | 17.2
343.15 K, x2 = 0.5692 | 1286 | 18.5
343.15 K, x2 = 0.673 | 1265.1 | 19.7
343.15 K, x2 = 0.7836 | 1240.2 | 20.9
343.15 K, x2 = 0.889 | 1213.4 | 22.1
343.15 K, x2 = 0.9535 | 1195.6 | 23
353.15 K, x2 = 0 | 1361.5 | 9.8
353.15 K, x2 = 0.0575 | 1354.9 | 10.1
353.15 K, x2 = 0.1136 | 1348 | 10.5
353.15 K, x2 = 0.2311 | 1332.5 | 11.4
353.15 K, x2 = 0.3515 | 1314.9 | 12.4
353.15 K, x2 = 0.4566 | 1298.1 | 13.3
353.15 K, x2 = 0.5692 | 1278.1 | 14.1
353.15 K, x2 = 0.673 | 1257.5 | 14.9
353.15 K, x2 = 0.7836 | 1232.8 | 15.8
353.15 K, x2 = 0.889 | 1206.3 | 16.6
353.15 K, x2 = 0.9535 | 1188.8 | 17.2

Source: the NIST ThermoML archive (doi:10.1021/je300972a)
